Measured values reported in patent publication US20060078499A1, “Use of hedgehog agonist to treat depression” (priority 2003, published 2006).

Tests used:
[1] = test system: BrdU-positive cells in the dentate gyrus; assay: BrdU labeling of cell proliferation, sacrifice 24 hr after BrdU; assay type: in vivo, mouse; settings: for cell proliferation (BrdU-labeled cells in the SGZ): 1 mg/kg/day mini pumps; for BrdU-labeled cells in dentate gyrus: 27 days of treatment, 24 hours after BrdU
Protocol: (§1) To assess the effect of antidepressant or X-irradiation treatments on the number of BrdU-positive cells, mice were administered BrdU (4×75 mg/kg i.p., dissolved in saline, every 2 hr; Roche Diagnostic, Indianapolis, Ind.) and sacrificed 24 hr after the last BrdU injection (FIG. 2A, 3B, 5C-D). To determine cell survival and phenotype after the various antidepressant treatments, fluoxetine, imipramine and vehicle-treated mice were allowed to survive for 28 days after the last BrdU injection (FIG. 2C-D, 3C). After deep anesthesia with a mixture of ketamine/xylazine (100 mg/kg and 7 mg/kg respectively), mice were transcardially perfused (cold saline for 2 min, followed by 4% cold paraformaldehyde/0.1 M phosphate buffer for 5 min) and brains were collected for immunohistochemistry. All brains were post-fixed overnight in 4% paraformaldehyde at 4° C., then cryoprotected in 30% sucrose and stored at 4° C. Serial sections of the brains were cut (35 μm sections) through the entire hippocampus (plates 41-61; Franklin and Paxinos, 1997) on a cryostat and stored in PBS with 0.1% NaN3. For DAB staining, sections were slide-mounted and boiled in citric acid, pH 6.0, for 5 min, rinsed with PBS, and treated with 0.01% trypsin in Tris/CaCl2 for 10 min. Brain sections were incubated for 30 min with 2N HCl and blocked with 5% NGS (Jackson ImmunoResearch, West Grove, Pa.). Sections were then incubated over night at room temperature with anti-mouse BrdU (1:100; Becton-Dickinson). After washing with PBS, sections were incubated for 1 hr with secondary antibody (1:200 biotinylated goat anti-mouse; Sigma-Aldrich, St. Louis, Mo.) followed by amplification with an avidin-biotin complex (Vector Laboratories). The staining was visualized with DAB (Sigma-Aldrich, St. Louis, Mo.). For fluorescent double-labeling, the DNA-denaturation procedure consisted of the following steps: 2 hr incubation in 50% formamide-2×SSC at 65° C., 5 min rinse in 2×SSC, 30 min incubation in 2N HCl at 37° C., and 10 min rinse in 0.1 M boric acid, pH 8.5. Sections were then incubated in TBS-0.1% Triton X-100 (Tx)-5% normal donkey serum (NDS) for 30 min, followed by anti-rat BrdU primary antibody (1:100; Accurate Westbury, N.Y. or Serotec, Oxford, UK) in TBS/NDS/Tx for 24 hrs at 4° C. in combination with either a mouse monoclonal antibody to NeuN (1:500; Chemicon, Temecula, Calif.) or a rabbit polyclonal antibody to GFAP (1:800; DAKO, Carpinteria, Calif.). The fluorescent secondary antibodies used were biotin-conjugated donkey anti-rat (1:200) plus streptavidin Cy2 (1:200), donkey anti-mouse Cy3 (1:500), or donkey anti-rabbit Cy3 (1:500) (Jackson ImmunoResearch, West Grove, Pa.). Fluorescent images were taken with a Bio-Rad MRC 1000 confocal laser scanning system coupled to a Zeiss Axiovert 100 inverted microscope. For each image acquisition, a Kalman average of five frames was used. For quantification of BrdU/NeuN or BrdU/GFAP double-labeled cells, at least 50 BrdU-positive cells per animal were analyzed using Z-plane sectioning (1 μm steps).
It has recently been shown that various antidepressant treatments, including fluoxetine, increase neurogenesis in the dentate gyrus (DG) of the rat hippocampus (Malberg et al., 2000). […] To confirm that chronic fluoxetine induces changes in the number of BrdU-positive cells in the DG, we treated adult mice with either vehicle or fluoxetine for 5, 11 or 28 days. On the final day of treatment, all animals were injected with BrdU (four injections of 75 mg/kg), sacrificed 24 hours later, and perfused for immunohistochemistry. The treatment with fluoxetine caused a 60% increase in the number of BrdU positive cells in the DG of animals after either 11 or 28 days, but had no effect in animals treated for 5 days (FIGS. 2A and B).
(§2) In this set of experiments, wild type and 5-HT1A receptor KO mice were injected with BrdU following 27 days of treatment with fluoxetine, imipramine, or vehicle. […]

[2] = test system: 129/SvEv mice; assay: Novelty-suppressed feeding test (NSF); assay type: in vivo, mouse
Protocol: The Novelty-suppressed feeding test was carried out during a 5-min period as previously described (Santarelli et al., 2001). Briefly, the testing apparatus consisted of a plastic box, 50×50×20 cm. The floor was covered with approximately 2 cm of wooden bedding. Twenty-four hours prior to behavioral testing, all food was removed from the home cage. At the time of testing, a single pellet of food (regular chow) was placed on a white paper platform positioned in the center of the box. An animal was placed in a corner of the maze and a stopwatch was immediately started. The measure of interest (chewing) was scored when the mouse was sitting on its haunches and biting with the use of forepaws. Immediately after this test, mice were transferred to their home cage and the amount of food consumed in 5 min was measured (home cage food consumption). […] Mice were always tested during the light period.
The NSF is a conflict test in which food-deprived animals are presented with a food pellet placed in the center of a brightly-lit open field. This paradigm elicits competing motivations: the drive to eat the food pellet, and the fear of venturing into the center of the arena.
Haloperidol, an antipsychotic that antagonizes D2 dopamine receptors, was used as a negative control because it is devoid of antidepressant activity in humans. NSF performance was assessed after either 5 or 28 days of oral drug administration.

[3] = 129/SvEv, mouse, in vivo, po
Protocol: Fluoxetine (Eli Lilly, Indianapolis, Ind.), Imipramine (Sigma-Aldrich, St. Louis, Mo.), Desipramine (Sigma-Aldrich, St. Louis, Mo.) and Haloperidol (Sigma-Aldrich, St. Louis, Mo.) were dissolved in tap water at a concentration of 80, 160, 160, and 8 mg/L, respectively. These concentration were established based on the average drinking amount and average weight of the mice used in the study to achieve a final dose of 10 (fluoxetine), 20 (imipramine and desipramine) and 1 (haloperidol) mg/kg/day. […] Vehicle animals received tap water. 8-hydroxy-2-(di-n-propylamino) tetralin (8-OH-DPAT, Sigma-Aldrich, St. Louis, Mo.) was dissolved in sterile saline (0.9% NaCl) at a concentration of 4.5 mg/ml, and delivered through Alzet osmotic mini-pumps (model 2004, Alzet, Cupertino, Calif.) implanted subcutaneously 28 days prior to behavioral testing. The final average dose delivered was 1 mg/kg/day. Sham mice were implanted with mini-pumps containing sterile saline.

[4] = test system: BrdU-positive cells in the dentate gyrus; assay: BrdU labeling of cell proliferation, sacrifice 24 hr after BrdU; assay type: in vivo, mouse; settings: chronic treatment
[5] = test system: BALB/c mice; assay: Chronic unpredictable stress paradigm (CUS); assay type: in vivo, mouse; settings: for state of the fur (coat score) / grooming latency: 10 mg/kg/day i.p.; for weight loss induced by stress: data not shown
Protocol: The stress regimen used is a variant of the chronic mild stress procedures described by Willner et al. (Willner et al., 1992). Mice were subjected to various and repeated unpredictable stressors for a period of five weeks (Griebel et al., 2002). The different stressors used were: alterations of the bedding (repeated sawdust changing, removal of sawdust, damp sawdust, substitution of sawdust with 37° C. water); cage tilting (45°); predator sounds (15 min.); cage shift (mice were positioned in the empty cage of another male); light to dark or dark to light shifts (four light/dark successions of 30 min every 24 hours); reversal of the light/dark cycle. The fluoxetine treatment (10 mg/kg/day, i.p.) started at the beginning of the third week. The state of the coat was assessed at the end of the stress regimen (end of fifth week). The total score resulted from the sum of the score of seven different body parts: head, neck, dorsal coat, ventral coat, tail, forepaws and the hindpaws. A score of 0 was given for a well-groomed coat and 1 for a spoiled coat (see Griebel, 2002). The grooming latency was assessed at the end of the sixth week. This test consisted in squirting 200 μl of a 10% sucrose solution on the mouse's snout. The latency to start grooming was then recorded.
The CUS protocol consists of the sequential application of a number of stressors, presented in a varied and unpredictable manner during 5 weeks. The continued application of these stressors produces a deterioration in the state of the coat, an impaired grooming response, and weight loss (Griebel et al., 2002; Willner et al., 1992). ADs such as fluoxetine can reverse these stress-induced effects after chronic, but not acute, administration (Griebel et al., 2002; Willner et al., 1992).
Sham and irradiated mice were subjected to five weeks of CUS, beginning two weeks after the final X-ray dose, and half of the animals in each group were administered fluoxetine (10 mg/kg/day, i.p.) from weeks 3-6. The state of each animal's fur was assessed at the end of the stress period, and assigned a score based on observations from several body regions (see methods). Fluoxetine treatment was continued for one more week, after which we measured the latency to begin grooming following application of a sucrose solution to the head of each animal.

[6] = test system: BrdU-positive cells within the SGZ and granule cell layer; assay: Survival and phenotype of BrdU-positive cells 28 days after BrdU injection; assay type: in vivo, mouse; settings: for BrdU-positive cells surviving 28 days after BrdU injection: chronic treatment
Protocol: as §1
To determine the fate of hippocampal cells labeled with BrdU following chronic treatment with either fluoxetine or vehicle, animals were allowed to survive for a period of four weeks after injection of BrdU. During this time fluoxetine oral treatment was suspended and animals were returned to tap water. Brain sections were co-labeled with antibodies raised against BrdU and either the mature neuronal marker NeuN or the astroglial marker GFAP. […] The percentage of BrdU-positive cells within the SGZ and granule cell layer that expressed NeuN was 70±2%, and the percentage of BrdU-positive cells that expressed GFAP was 15±3%. These proportions were not influenced by the antidepressant treatment, as previously reported (Malberg et al., 2000).
as §2

[7] = 28-day treatment via drinking water, compared to vehicle
[8] = 5-HT1A knockout (-/-) mice, 28 days, vs vehicle
[9] = wild type (+/+) mice, 28 days, vs vehicle
[10] = 5-day treatment via drinking water, compared to vehicle
[11] = X-irradiated animals, chronic treatment
[12] = sham (non-irradiated) animals, chronic treatment
[13] = four weeks after BrdU, chronic fluoxetine or vehicle, proportions not influenced by treatment

Compound | latency to feed [2, 7] | time by which steady serum levels had been achieved [3] [days] | latency to feed [2, 8] | latency to feed [2, 9] | BrdU-labeled cells in dentate gyrus ([1]; 5-HT1A receptor KO mice) | BrdU-labeled cells in dentate gyrus ([1]; wild type mice) | latency to feed [2, 10] | latency to feed [2, 11] | latency to feed [2, 12] | BrdU-positive cells surviving 28 days after BrdU injection ([6]; 5-HT1A receptor KO mice) | BrdU-positive cells surviving 28 days after BrdU injection ([6]; WT mice) | other results
CCCN(CCC)C1CCc2cccc(O)c2C1 (stereo not shown) [8-OH-DPAT, 8-hydroxy-2-(di-n-propylamino) tetralin] |  |  |  |  |  |  |  |  |  |  |  | cell proliferation (BrdU-labeled cells in the SGZ) ([1]; 5-HT1A receptor KO mice, chronic treatment): not observed; cell proliferation (BrdU-labeled cells in the SGZ) ([1]; WT mice, chronic treatment): increase in cell proliferation; latency to feed ([2]; 5-HT1A receptor KO mice, 28 days s.c. osmotic mini pumps, 1 mg/kg/day, vs sham): ineffective; latency to feed ([2]; WT mice, 28 days s.c. osmotic mini pumps, 1 mg/kg/day, vs sham): significantly decreased
O=C(CCCN1CCC(O)(c2ccc(Cl)cc2)CC1)c1ccc(F)cc1 [Haloperidol] | ineffective |  |  |  |  |  |  |  |  |  |  | 
CNCCCN1c2ccccc2CCc2ccccc21 [desipramine, Desipramine] | significant decreases | ≤ 5 | effective | significantly decreased |  |  |  |  |  |  |  | 
CNCCC(Oc1ccc(C(F)(F)F)cc1)c1ccccc1 (stereo not shown) [fluoxetine, Fluoxetine] | significant decreases | ≤ 5 | insensitive | significantly decreased | had no effect | two-fold increase | had no effect | no such anxiolytic-like effect | significant reduction | not in KO | had an effect | cell proliferation in the SVZ [4]: had no effect; increase in the number of BrdU positive cells in the DG ([1]; after either 11 or 28 days of treatment, vs vehicle): 60%; number of BrdU positive cells in the DG ([1]; animals treated for 5 days): had no effect; cell proliferation after irradiation ([1]; irradiated animals, chronic treatment): had no effect; cell proliferation in the SGZ ([1]; non-irradiated mice, chronic treatment): increased cell proliferation; state of the fur (coat score) ([5]; irradiated animals): absent; weight loss induced by stress ([5]; irradiated animals): blocked this effect; grooming latency ([5]; irradiated mice): not in irradiated mice; state of the fur (coat score) ([5]; sham animals): significantly improved; weight loss induced by stress ([5]; sham animals): trend to reverse the weight loss; grooming latency ([5]; sham mice): decreased; percentage of BrdU-positive cells that expressed GFAP [6, 13]: 15±3%; percentage of BrdU-positive cells that expressed NeuN [6, 13]: 70±2%
CN(C)CCCN1c2ccccc2CCc2ccccc21 [imipramine, Imipramine] | significant decreases | ≤ 5 | effective | significantly decreased | significant increase | significant increase | had no effect | no such anxiolytic-like effect | significant reduction | effective | effective | increase in the number of BrdU positive cells (SGZ and GCL) ([1]; both genotypes (+/+ and 5-HT1A -/-), 4 weeks of treatment): ~2 fold
NCCC(Oc1ccc(C(F)(F)F)cc1)c1ccccc1 (stereo not shown) [nor-fluoxetine] |  | ≤ 5 |  |  |  |  |  |  |  |  |  | 
